Like-named read-outs stand apart in the source and are kept apart here. A value given as a limit tells only on which side of the number the result lay.

One assay relates to ZIKV replicon. As to the kind of experiment: ZIKV replication inhibition assay (NanoLuc replicon in Vero cells). To be noted: 72 h.
In assay [1] the target is T1, West Nile Virus (WNV) NS2B-NS3 protease (West Nile virus, UniProt Q9Q6P4).
T1 construct: NS2B1423-1470); purchased R&D 2907-SE-020
Kind of assay: WNV protease inhibition assay. The class given is biochemical. The conditions noted are these: Table 4; letter codes for IC50. The source says:
WNV protease inhibition assay

[2] abbreviates: Zika virus, Vero, read-out: ZIKA Cell_Nanoluc, Vero cells with stable ZIKV replicon, 72 h, Nano-Glo readout.
Where [3] appears, read: Zika virus, Vero, read-out: ZIKA Cell_Nanoluc.
Where [4] appears, read: read-out: ZIKA Cell_Nanoluc, Vero cells with stable ZIKV replicon, Nano-Glo readout.

T1 sequence (Q9Q6P4 1423-1470): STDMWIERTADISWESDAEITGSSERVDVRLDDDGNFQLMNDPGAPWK
T1 sequence (Q9Q6P4 1506-1689): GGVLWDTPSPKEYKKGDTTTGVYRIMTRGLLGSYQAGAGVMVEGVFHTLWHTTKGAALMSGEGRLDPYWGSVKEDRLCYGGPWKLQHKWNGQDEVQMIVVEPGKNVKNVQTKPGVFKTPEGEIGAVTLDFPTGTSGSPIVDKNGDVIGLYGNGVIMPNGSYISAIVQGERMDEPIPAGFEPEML

For the compound `Cc1nc(N)ncc1-c1ccc(C[n+]2cc([N-]C(=O)Nc3ccnc(C(F)(F)F)c3)on2)cc1` [Example 260, (3-(4-(2-Amino-4-methylpyrimidin-5-yl)benzyl)-1,2,3-oxadiazol-3-ium-5-yl)((2-(trifluoromethyl)pyridin-4-yl)carbamoyl)amide], the EC50 with ZIKV replicon (setting [2]) was < 100 nM. Further, the IC50 in assay [1] was < 100 nM.
For the compound `C[C@@H](C(=O)Nc1cc(NC(=O)[N-]c2c[n+]([C@H]3CC[C@H](CN(C)C)CC3)no2)cc(C(F)(F)F)c1)c1ccccc1` [Example 175, (3-((1R,4R)-4-((Dimethylamino)methyl)-cyclohexyl)-1,2,3-oxadiazol-3-ium-5-yl)((3-((R)-2-phenylpropanamido)-5-(trifluoromethyl)-phenyl)carbamoyl)amide], in the assay with ZIKV replicon (setting [3]), the EC50 lay within 1000 to 20000 nM. The IC50 in assay [1] was < 100 nM.
`Cc1nsc(C)c1-c1ccc(C[n+]2cc([N-]C(=O)Nc3ccnc(C(F)(F)F)c3)on2)cc1` [Example 211, (3-(4-(3,5-Dimethylisothiazol-4-yl)benzyl)-1,2,3-oxadiazol-3-ium-5-yl)((2-(trifluoromethyl)-pyridin-4-yl)carbamoyl)amide]: the EC50 in the assay with ZIKV replicon (setting [2]) was in the range of 1000 to 20000 nM. Further, in assay [1], the IC50 lay within 100 to 1000 nM.
For `CN(C)C[C@H]1CC[C@H]([n+]2cc([N-]C(=O)Nc3cc(NC(=O)Cc4cccc(Cl)c4)cc(C(F)(F)F)c3)on2)CC1` [Example 176, ((3-(2-(3-Chlorophenyl)acetamido)-5-(trifluoromethyl)phenyl)carbamoyl)(3-((1R,4R)-4-((dimethylamino)methyl)cyclohexyl)-1,2,3-oxadiazol-3-ium-5-yl)amide], in the assay with ZIKV replicon (setting [3]), the EC50 was in the range of 1000 to 20000 nM. Further, in assay [1], the IC50 fell in the range of 100 to 1000 nM.
The matching figures for `CN(C)C[C@H]1CC[C@H]([n+]2cc([N-]C(=O)Nc3cc(NC(=O)Cc4cccc(CN)c4)cc(C(F)(F)F)c3)on2)CC1` [Example 163, ((3-(2-(3-(Aminomethyl)phenyl)acetamido)-5-(trifluoromethyl)phenyl)carbamoyl)(3-((1R,4R)-4-((dimethylamino)methyl)cyclohexyl)-1,2,3-oxadiazol-3-ium-5-yl)amide]: 1000 to 20000 nM and 100 to 1000 nM.
As to `CNC(=O)[C@@H]1CCC[C@@H]([n+]2cc([N-]C(=O)Nc3cc(NC(=O)Cc4ccccc4C)cc(C(F)(F)F)c3)on2)C1` [Example 231, (3-((1R,3R)-3-(Methylcarbamoyl)cyclohexyl)-1,2,3-oxadiazol-3-ium-5-yl)((3-(2-(o-tolyl)acetamido)-5-(trifluoromethyl)phenyl)-carbamoyl)amide], the EC50 in the assay with ZIKV replicon (setting [2]) lay within 1000 to 20000 nM. Besides, the IC50 in assay [1] is < 100 nM.
On to `CN(C)C[C@H]1CC[C@H]([n+]2cc([N-]C(=O)Nc3cc(NC(=O)Cc4ccccc4C(F)(F)F)cc(C(F)(F)F)c3)on2)CC1` [Example 166, (3-((1R,4R)-4-((Dimethylamino)methyl)-cyclohexyl)-1,2,3-oxadiazol-3-ium-5-yl)((3-(trifluoromethyl)-5-(2-(2-(trifluoromethyl)-phenyl)acetamido)phenyl)carbamoyl)amide], for which, in the assay with ZIKV replicon (setting [3]), the EC50 was in the range of 1000 to 20000 nM. Moreover, the IC50 in assay [1] fell in the range of 100 to 1000 nM.
Turning to `Cc1cn(C2COC2)nc1-c1ccc(C[n+]2cc([N-]C(=O)Nc3ccnc(C(F)(F)F)c3)on2)cc1` [Example 250, (3-(4-(4-Methyl-1-(oxetan-3-yl)-1H-pyrazol-3-yl)benzyl)-1,2,3-oxadiazol-3-ium-5-yl)((2-(trifluoromethyl)pyridin-4-yl)carbamoyl)amide], in the assay with ZIKV replicon (setting [2]), the EC50 lay in the range of 100 to 1000 nM. This compound gave an IC50 in assay [1] of 100 to 1000 nM.
For `COc1cc(NC(=O)[N-]c2c[n+](Cc3ccc(-c4c(C)ncnc4C)cc3)no2)ccn1` [Example 209, (3-(4-(4,6-Dimethylpyrimidin-5-yl)benzyl)-1,2,3-oxadiazol-3-ium-5-yl)((2-methoxypyridin-4-yl)carbamoyl)amide], in the assay with ZIKV replicon (setting [2]), the EC50 is 1000 to 20000 nM. The IC50 in assay [1] lay in the range of 100 to 1000 nM.
On to `Cc1ccccc1CC(=O)Nc1cc(NC(=O)[N-]c2c[n+]([C@H]3CCC[C@H](c4cncnc4)C3)no2)cc(C(F)(F)F)c1` [Example 221, (3-((1S,3S)-3-(Pyrimidin-5-yl)cyclohexyl)-1,2,3-oxadiazol-3-ium-5-yl)((3-(2-(o-tolyl)acetamido)-5-(trifluoromethyl)phenyl)carbamoyl)amide], for which the EC50 in the assay on ZIKV replicon (setting [2]) lay in the range of 1000 to 20000 nM. Besides, the IC50 in assay [1] fell in the range of 100 to 1000 nM.
As to `Cc1ccccc1CC(=O)Nc1cc(NC(=O)[N-]c2c[n+]([C@H]3CCCC[C@H]3O)no2)cc(C(F)(F)F)c1` [Example 240, (3-((1S,2R)-2-Hydroxycyclohexyl)-1,2,3-oxadiazol-3-ium-5-yl)((3-(2-(o-tolyl)acetamido)-5-(trifluoromethyl)phenyl)carbamoyl)amide], the EC50 in the assay with ZIKV replicon (setting [2]) is 1000 to 20000 nM. In assay [1], this compound yielded a half-maximal inhibitory concentration (IC50) of 100 to 1000 nM.
`Cc1ccccc1CC(=O)Nc1cc(NC(=O)[N-]c2c[n+]([C@H]3CC[C@H](C(=O)O)CC3)no2)cc(C(F)(F)F)c1` [Example 229, (3-((1R,4R)-4-Carboxycyclohexyl)-1,2,3-oxadiazol-3-ium-5-yl)((3-(2-(o-tolyl)acetamido)-5-(trifluoromethyl)phenyl)carbamoyl)amide]: the EC50 with ZIKV replicon (setting [3]) fell in the range of 1000 to 20000 nM. Also, the IC50 in assay [1] was 100 to 1000 nM.
Consider `CN(C)C[C@H]1CC[C@H]([n+]2cc([N-]C(=O)Nc3cc(NC(=O)Cc4ccc(C(=O)O)cc4)cc(C(F)(F)F)c3)on2)CC1` [Example 156, ((3-(2-(4-Carboxyphenyl)acetamido)-5-(trifluoromethyl)phenyl)carbamoyl)(3-((1R,4R)-4-((dimethylamino)methyl)cyclohexyl)-1,2,3-oxadiazol-3-ium-5-yl)amide], for which the EC50 in the assay on ZIKV replicon (setting [4]) was 1000 to 20000 nM. Also, the half-maximal inhibitory concentration (IC50) in assay [1] fell in the range of 1000 to 20000 nM.
`COC(=O)c1ccc(NC(=O)[N-]c2c[n+](Cc3ccc(-c4c(C)ncnc4C)cc3)no2)cc1C(F)(F)F` [Example 262, (3-(4-(4,6-Dimethylpyrimidin-5-yl)benzyl)-1,2,3-oxadiazol-3-ium-5-yl)((4-(methoxy-carbonyl)-3-(trifluoromethyl)phenyl)carbamoyl) amide]: the EC50 with ZIKV replicon (setting [2]) is 100 to 1000 nM. The same compound displayed an IC50 in assay [1] of 100 to 1000 nM.
Consider `Cc1ccccc1CC(=O)Nc1cc(NC(=O)[N-]c2c[n+]([C@H]3CC[C@H](C(=O)N(C)C)CC3)no2)cc(C(F)(F)F)c1` [Example 248, (3-((1R,4R)-4-(Dimethylcarbamoyl)-cyclohexyl)-1,2,3-oxadiazol-3-ium-5-yl)((3-(2-(o-tolyl)acetamido)-5-(trifluoromethyl)phenyl)-carbamoyl)amide], for which the EC50 in the assay on ZIKV replicon (setting [3]) is 1000 to 20000 nM. The IC50 in assay [1] was < 100 nM.
For the compound `Cc1ncncc1-c1ccc(C[n+]2cc([N-]C(=O)Nc3ccnc(C(F)(F)F)c3)on2)cc1` [Example 225, (3-(4-(4-Methylpyrimidin-5-yl)benzyl)-1,2,3-oxadiazol-3-ium-5-yl)((2-(trifluoromethyl)pyridin-4-yl)carbamoyl)amide], the EC50 with ZIKV replicon (setting [2]) lay in the range of 100 to 1000 nM. For the same compound, in assay [1], the IC50 fell in the range of 100 to 1000 nM.
`COC(=O)[C@H]1CCC[C@@H]([n+]2cc([N-]C(=O)Nc3cc(NC(=O)Cc4ccccc4C)cc(C(F)(F)F)c3)on2)C1` [Example 223, (3-((1R,3S)-3-(Methoxycarbonyl)cyclohexyl)-1,2,3-oxadiazol-3-ium-5-yl)((3-(2-(o-tolyl)acetamido)-5-(trifluoromethyl)phenyl)-carbamoyl)amide]: the EC50 in the assay on ZIKV replicon (setting [2]) is < 100 nM. In addition, the 50% inhibitory concentration (IC50) in assay [1] is < 100 nM.
For `O=C([N-]c1c[n+](Cc2ccc(-c3cncnc3)cc2)no1)Nc1ccnc(C(F)(F)F)c1` [Example 266, (3-(4-(Pyrimidin-5-yl)benzyl)-1,2,3-oxadiazol-3-ium-5-yl)((2-(trifluoromethyl)pyridin-4-yl)carbamoyl)amide], the EC50 in the assay with ZIKV replicon (setting [4]) was < 100 nM. For the same compound, the 50% inhibitory concentration (IC50) in assay [1] is < 100 nM.
Regarding `Cc1ccccc1CC(=O)Nc1cc(NC(=O)[N-]c2c[n+](C[C@@H]3CCCC[C@H]3O)no2)cc(C(F)(F)F)c1` [Example 218, (3-(((1S,2R)-2-Hydroxycyclohexyl)methyl)-1,2,3-oxadiazol-3-ium-5-yl)((3-(2-(o-tolyl)acetamido)-5-(trifluoromethyl)phenyl)-carbamoyl)amide], the EC50 in the assay with ZIKV replicon (setting [2]) lay within 100 to 1000 nM. Besides, the concentration for half-maximal inhibition (IC50) in assay [1] lay within 100 to 1000 nM.
Take `CN(C)CC1CCC([n+]2cc([N-]C(=O)Nc3cc(NC(=O)CCc4cnccn4)cc(C(F)(F)F)c3)on2)CC1` [Example 158, (3-((1R,4R)-4-((Dimethylamino)methyl)-cyclohexyl)-1,2,3-oxadiazol-3-ium-5-yl)((3-(3-(pyrazin-2-yl)propanamido)-5-(trifluoromethyl-)phenyl)carbamoyl)amide]: the EC50 in the assay with ZIKV replicon (setting [4]) was > 20000 nM. In assay [1], this compound had an IC50 of 1000 to 20000 nM.
Regarding `Cc1ccccc1CC(=O)Nc1cc(NC(=O)[N-]c2c[n+]([C@@H]3CCC[C@@H](C(N)=O)C3)no2)cc(C(F)(F)F)c1` [Example 235, (3-((1R,3R)-3-Carbamoylcyclohexyl)-1,2,3-oxadiazol-3-ium-5-yl)((3-(2-(o-tolyl)acetamido)-5-(trifluoromethyl)phenyl)carbamoyl)amide], the EC50 in the assay with ZIKV replicon (setting [4]) was in the range of 100 to 1000 nM. Also, the IC50 in assay [1] is < 100 nM.
For the compound `Cc1noc(C)c1CC(=O)Nc1cc(NC(=O)[N-]c2c[n+]([C@H]3CC[C@H](CN(C)C)CC3)no2)cc(C(F)(F)F)c1` [Example 197, (3-((1R,4R)-4-((Dimethylamino)methyl)-cyclohexyl)-1,2,3-oxadiazol-3-ium-5-yl)((3-(2-(3,5-dimethylisoxazol-4-yl)acetamido)-5-(trifluoromethyl)phenyl)carbamoyl)amide], the EC50 with ZIKV replicon (setting [3]) was < 100 nM. In assay [1], this compound had an IC50 of 1000 to 20000 nM.
In the same order, the values of `CC(C(=O)N(C)c1cc(NC(=O)[N-]c2c[n+]([C@H]3CC[C@H](CN(C)C)CC3)no2)cc(C(F)(F)F)c1)c1ccccc1` (stereo partly drawn) [Example 167, (3-((1R,4R)-4-((Dimethylamino)methyl)-cyclohexyl)-1,2,3-oxadiazol-3-ium-5-yl)((3-(N-methyl-2-phenylpropanamido)-5-(trifluoromethyl)phenyl)carbamoyl)amide] are 1000 to 20000 nM and 100 to 1000 nM.

The values above are taken from patent publication EP4563146A1 (IRBM S.P.A., priority 2023, dated 2025).
